Earlier results, collected in patent US8389572B2, “Therapeutic delivery of carbon monoxide” (hemoCORM Limited, priority 2006, dated 2013).

Conditions: disclosed in WO 02/092075 and WO 2004/045598

In the case of `F[P-](F)(F)(F)(F)F.O=[C]=[Fe](=[C]=O)(=[C]=O)[CH]1C=CC=C1` [[CpFe(CO)3]PF6], the “precipitate during release of CO” value is given as “produced a precipitate during release of CO” and the solubility (solvent) is given as “soluble in dimethylsulphoxide (DMSO)”.
